# Reference: US20190134005A1 (BioMarin Pharmaceutical Inc., priority 2016, published 2019)
# Biological target: T1, human CGT (Homo sapiens, UniProt Q16880)
# T1 sequence (Q16880 21-541): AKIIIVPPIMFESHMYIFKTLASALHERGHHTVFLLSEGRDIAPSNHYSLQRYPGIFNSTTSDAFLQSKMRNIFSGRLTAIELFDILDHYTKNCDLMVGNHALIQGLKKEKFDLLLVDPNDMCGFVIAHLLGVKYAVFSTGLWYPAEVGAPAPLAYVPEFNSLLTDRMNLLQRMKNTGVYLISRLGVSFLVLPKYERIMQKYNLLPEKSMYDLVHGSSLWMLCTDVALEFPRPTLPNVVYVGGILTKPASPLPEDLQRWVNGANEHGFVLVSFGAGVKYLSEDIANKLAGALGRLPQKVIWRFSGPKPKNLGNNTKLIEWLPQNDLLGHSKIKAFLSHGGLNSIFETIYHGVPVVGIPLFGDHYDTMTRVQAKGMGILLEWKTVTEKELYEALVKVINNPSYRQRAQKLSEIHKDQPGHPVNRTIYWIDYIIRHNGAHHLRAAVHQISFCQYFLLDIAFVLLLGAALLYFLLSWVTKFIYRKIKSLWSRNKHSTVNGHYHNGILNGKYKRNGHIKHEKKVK
# Assay: Assay 1: CGT Enzymatic Assay (RapidFire/MS/MS, 0.01% Tween 80)
# Type: biochemical
# Settings: Table 1, Compounds of Formula (I) and Formula (II); CGT enzymatic assay, C6-NBD-dihydro-galactosylceramide readout; read-out: IC50
row,IC50 [nM],Structure (SMILES)
1,< 1000,"CC1(C)N(c2ccc(Cl)cc2)C(=O)N(c2ccc(Cl)cc2)C1(O)c1cccc(C2CCO2)c1 (centres unmarked) [Example 324-1, 1,3-bis(4-chlorophenyl)-4-hydroxy-5,5-dimethyl-4-(3-(oxetan-2-yl)phenyl)imidazolidin-2-one]"
2,< 1000,"CCc1ccc(N2C(=O)N(c3ccc(C#N)cc3)C3(COC3)C2(O)c2cccc(OC(F)(F)F)c2)cc1 (centres unmarked) [Example 337, 4-(7-(4-ethylphenyl)-8-hydroxy-6-oxo-8-(3-(trifluoromethoxy)phenyl)-2-oxa-5,7-diazaspiro[3.4]octan-5-yl)benzonitrile]"
3,< 1000,"CC[C@@]1(C)N(c2ccc(C#N)cc2)C(=O)N(c2ccc(C#N)cc2)C1(O)c1cccc(OC(F)(F)F)c1 (stereo partly drawn) [Example 319-1, 4,4′-((4R)-4-ethyl-5-hydroxy-4-methyl-2-oxo-5-(3-(trifluoromethoxy)phenyl)imidazolidine-1,3-diyl)dibenzonitrile]"

# Same assay, conditions: Table 1, Compounds of Formula (I) and Formula (II); CGT enzymatic assay; read-out: IC50
row,Structure (SMILES),IC50 [nM]
1,"Cc1cccc(-c2c(C)n(-c3ccc(Br)cc3)c(=O)n2-c2ccc(Br)cc2)c1 [Compound 263, 1,3-bis(4-bromophenyl)-4-methyl-5-(m-tolyl)-1,3-dihydro-2H-imidazol-2-one]",1000 to 10000
2,"CC1(C)N(c2ccc(C(F)(F)F)cc2)C(=O)N(c2ccc(C(F)(F)F)cc2)C1(O)c1cccc(C#N)c1 (centres unmarked) [Example 192, 3-(4-hydroxy-5,5-dimethyl-2-oxo-1,3-bis(4-(trifluoromethyl)phenyl)-imidazolidin-4-yl)benzonitrile]",< 1000
3,"Cc1cccc(C2(O)CN(c3ccc(Br)cc3)C(=O)N2c2ccc(Br)cc2)c1 (centres unmarked) [Example 16, 1,3-bis(4-bromophenyl)-4-hydroxy-4-(m-tolyl)imidazolidin-2-one]",1000 to 10000
4,"CCC1(O)CN(c2ccc(Br)cc2)C(=O)N1c1ccc(Br)cc1 (centres unmarked) [Example 4, 1,3-bis(4-bromophenyl)-4-ethyl-4-hydroxyimidazolidin-2-one]",10000 to 50000
5,"O=C1N(c2ccc(Br)cc2)C(=O)C(O)(c2ccc(OCC3CC3)cc2)N1c1ccc(Br)cc1 (centres unmarked) [Example 184, 1,3-bis(4-bromophenyl)-5-(4-(cyclopropylmethoxy)phenyl)-5-hydroxyimidazolidine-2,4-dione]",> 50000
6,"N#Cc1cc(Cl)cc(-c2cn(-c3ccc(Cl)cc3)c(=O)n2-c2ccc(Cl)cc2)c1 [Compound 265, 3-(1,3-bis(4-chlorophenyl)-2-oxo-2,3-dihydro-1H-imidazol-4-yl)-5-chlorobenzonitrile]",> 50000
7,"CCCC1N(c2ccc(Br)cc2)C(=O)N(c2ccc(Br)cc2)C1(O)c1cccc(C)c1 (centres unmarked) [Compound 96, 1,3-bis(4-bromophenyl)-4-hydroxy-5-propyl-4-(m-tolyl)imidazolidin-2-one]",< 1000
8,"C[C@@H]1N(c2ccc(Br)cc2)C(=O)N(c2ccc(Br)cc2)C1(O)c1cccc(Cl)c1 (stereo partly drawn) [Compound 73-1, (5S)-1,3-bis(4-bromophenyl)-4-(3-chlorophenyl)-4-hydroxy-5-methylimidazolidin-2-one]",< 1000
9,"O=C1N(c2ccc(Cl)cc2)C2(CC2)C(O)(c2cccc(OC(F)F)c2)N1c1ccc(Cl)cc1 (centres unmarked) [Compound 236, 4,6-bis(4-chlorophenyl)-7-(3-(difluoromethoxy)phenyl)-7-hydroxy-4,6-diazaspiro[2.4]heptan-5-one]",< 1000
10,"O=C1N(c2ccc(Cl)c(Cl)c2)CC(O)(c2ccccc2)N1c1ccc(Cl)c(Cl)c1 (centres unmarked) [Example 32, 1,3-bis(3,4-dichlorophenyl)-4-hydroxy-4-phenylimidazolidin-2-one]",1000 to 10000
11,"CCC1N(c2ccc(F)cc2)C(=O)N(c2ccc(F)cc2)C1(O)c1cccc(C(F)(F)F)c1 (centres unmarked) [Compound 139, 5-ethyl-1,3-bis(4-fluorophenyl)-4-hydroxy-4-(3-(trifluoromethyl)phenyl)imidazolidin-2-one]",1000 to 10000
12,"CC(C)C1(c2cccc(C#N)c2)C(O)N(c2ccc(Cl)cc2)C(=O)N1c1ccc(Cl)cc1 (centres unmarked) [Example 231, 3-(1,3-bis(4-chlorophenyl)-5-hydroxy-4-isopropyl-2-oxoimidazolidin-4-yl)benzonitrile]",1000 to 10000
13,"O=C1N(c2ccc(Br)cc2)C(=O)C(O)(c2ccc(OC3CC3)c(Cl)c2)N1c1ccc(Br)cc1 (centres unmarked) [Example 171, 1,3-bis(4-bromophenyl)-5-(3-chloro-4-cyclopropoxyphenyl)-5-hydroxyimidazolidine-2,4-dione]",50000 to 100000
14,"CCCc1c(-c2cccc(OC(F)(F)F)c2)n(-c2ccc(Br)cc2)c(=O)n1-c1ccc(Br)cc1 [Compound 248, 1,3-bis(4-bromophenyl)-4-propyl-5-(3-(trifluoromethoxy)phenyl)-1,3-dihydro-2H-imidazol-2-one]",< 1000
15,"O=C1N(c2ccc(Br)cc2)CC(O)(c2cccc(OC(F)(F)F)c2)N1c1ccc(Br)cc1 (centres unmarked) [Compound 58, 1,3-bis(4-bromophenyl)-4-hydroxy-4-(3-(trifluoromethoxy)phenyl)imidazolidin-2-one]",< 1000
16,"CC1N(c2ccc(Cl)cc2)C(=O)N(c2ccc(Cl)cc2)C1(O)c1cccc(Cl)c1 (centres unmarked) [Compound 62, 4-(3-chlorophenyl)-1,3-bis(4-chlorophenyl)-4-hydroxy-5-methylimidazolidin-2-one]",< 1000
17,"O=C1N(c2ccc(Cl)cc2)C2(CC2)C(O)(c2cccc(O)c2)N1c1ccc(Cl)cc1 (centres unmarked) [Example 227, 4,6-bis(4-chlorophenyl)-7-hydroxy-7-(3-hydroxyphenyl)-4,6-diazaspiro[2.4]heptan-5-one]",1000 to 10000
18,"O=c1n(-c2ccc(Br)cc2)c(-c2ccccc2)c(C2CC2)n1-c1ccc(Br)cc1 [Compound 249, 1,3-bis(4-bromophenyl)-4-cyclopropyl-5-phenyl-1,3-dihydro-2H-imidazol-2-one]",< 1000
19,"Cc1csc(C2(O)C(C)N(c3ccc(Br)cc3)C(=O)N2c2ccc(Br)cc2)c1 (centres unmarked) [Compound 97, 1,3-bis(4-bromophenyl)-4-hydroxy-5-methyl-4-(4-methylthiophen-2-yl)imidazolidin-2-one]",1000 to 10000
20,"CCCc1c(-c2cccc(Cl)c2)n(-c2ccc(Br)cc2)c(=O)n1-c1ccc(Br)cc1 [Compound 250, 1,3-bis(4-bromophenyl)-4-(3-chlorophenyl)-5-propyl-1,3-dihydro-2H-imidazol-2-one]",< 1000
21,"Cc1c(-c2cccc(OC(F)(F)F)c2)n(-c2ccc(Br)cc2)c(=O)n1-c1ccc(Br)cc1 [Compound 262, 1,3-bis(4-bromophenyl)-4-methyl-5-(3-(trifluoromethoxy)phenyl)-1,3-dihydro-2H-imidazol-2-one]",1000 to 10000
22,"N#Cc1cc(Cl)cc(C2(O)CN(c3ccc(Cl)cc3)C(=O)N2c2ccc(Cl)cc2)c1 (centres unmarked) [Compound 95, 3-(1,3-bis(4-chlorophenyl)-4-hydroxy-2-oxoimidazolidin-4-yl)-5-chlorobenzonitrile]",1000 to 10000

# Continued, values first:
row,IC50 [nM],Structure (SMILES)
1,< 1000,"CC[C@@H]1N(c2ccc(Cl)cc2)C(=O)N(c2ccc(Cl)cc2)C1(O)c1cccc(C)c1 (stereo partly drawn) [Compound 75-1, (5S)-1,3-bis(4-chlorophenyl)-5-ethyl-4-hydroxy-4-(m-tolyl)imidazolidin-2-one]"
2,< 1000,"CCC1N(c2ccc(Cl)cc2)C(=O)N(c2ccc(Cl)cc2)C1(O)c1cccc(OC(F)(F)F)c1 (stereo in doubt) [Compound 82-2, (5R)-1,3-bis(4-chlorophenyl)-5-ethyl-4-hydroxy-4-(3-(trifluoromethoxy)phenyl)imidazolidin-2-one]"
3,< 1000,"CC[C@H]1N(c2ccc(Cl)cc2)C(=O)N(c2ccc(Cl)cc2)C1(O)c1cccc(C)c1 (stereo partly drawn) [Compound 75-2, (5R)-1,3-bis(4-chlorophenyl)-5-ethyl-4-hydroxy-4-(m-tolyl)imidazolidin-2-one]"
4,< 1000,"CCC[C@@H]1N(c2ccc(Cl)cc2)C(=O)N(c2ccc(Cl)cc2)C1(O)c1cccc(C)c1 (stereo partly drawn) [Compound 90-1, (5S)-1,3-bis(4-chlorophenyl)-4-hydroxy-5-propyl-4-(m-tolyl)imidazolidin-2-one]"
5,< 1000,"C[C@H]1N(c2ccc(Br)cc2)C(=O)N(c2ccc(Br)cc2)C1(O)c1cccc(C(F)(F)F)c1 (stereo partly drawn) [Compound 74-2, (5R)-1,3-bis(4-bromophenyl)-4-hydroxy-5-methyl-4-(3-(trifluoromethyl)phenyl)imidazolidin-2-one]"
6,< 1000,"CC[C@H]1N(c2ccc(F)cc2)C(=O)N(c2ccc(F)cc2)C1(O)c1cccc(C#N)c1 (stereo partly drawn) [Compound 123-2, 3-((5R)-5-ethyl-1,3-bis(4-fluorophenyl)-4-hydroxy-2-oxoimidazolidin-4-yl)benzonitrile]"
7,1000 to 10000,"O=C1N(c2ccc(Br)cc2)[C@H](c2ccccc2)C(O)(c2ccccc2)N1c1ccc(Br)cc1 (stereo partly drawn) [Compound 86-2, (5R)-1,3-bis(4-bromophenyl)-4-hydroxy-4,5-diphenylimidazolidin-2-one]"
8,< 1000,"C[C@@]1(c2cccc(Cl)c2)C(O)N(c2ccc(Cl)cc2)C(=O)N1c1ccc(Cl)cc1 (single isomer, unassigned) [Compound 149-2]"
9,10000 to 50000,"O=C1N(c2ccc(Br)cc2)[C@@H](c2ccccc2)C(O)(c2ccccc2)N1c1ccc(Br)cc1 (stereo partly drawn) [Compound 86-1, (5S)-1,3-bis(4-bromophenyl)-4-hydroxy-4,5-diphenylimidazolidin-2-one]"
10,> 50000,"C[C@@H]1N(c2ccc(Cl)cc2)C(=O)N(c2ccc(Cl)cc2)C1(O)c1cccc(C(C)(C)O)c1 (stereo partly drawn) [Compound 140-1, (5S)-1,3-bis(4-chlorophenyl)-4-hydroxy-4-(3-(2-hydroxypropan-2-yl)phenyl)-5-methylimidazolidin-2-one]"
